Each structure is given as a SMILES string. Like-named read-outs stand apart in the source and are kept apart here.

For data set [1] the following is noted: alpha form obtained by process of WO 99/03854; cited from earlier work.
Data set [2] in a line: Hygroscopicity of the crystal form according to the invention. The class given is physicochemical.
A short description of data set [3]: Forced degradation (stress) study of imatinib mesylate alpha form. The data set is classed as physicochemical.
Setting [4] is: 60° C. for 48 hours, listed as RD/IMT-4/31.
Where [5] appears, read: 60° C. for 48 hours, listed as RD/IMT-4/34.
[6] abbreviates: 105° C. for 12 hours, listed as RD/IMT-4/31.
The mark [7] stands for this setting: 105° C. for 12 hours, listed as RD/IMT-4/34.
Where [8] appears, read: As such (i.e. no stress condition).
Where [9] appears, read: As such (i.e. no stress condition), listed as RD/IMT-4/31.
The mark [10] stands for this setting: As such (i.e. no stress condition), listed as RD/IMT-4/34.
Setting [11] is: UV −45° C. 75 RH for 12 hours, listed as RD/IMT-4/31.
Where [12] appears, read: UV −45° C. 75 RH for 12 hours, listed as RD/IMT-4/34.

As to `CS(=O)(=O)O.Cc1ccc(NC(=O)c2ccc(CN3CCN(C)CC3)cc2)cc1Nc1nccc(-c2cccnc2)n1` [alpha-crystalline form], in data set [1], the hygroscopicity entry was “highly hygroscopic” and the stability entry is “not stable”.

For the compound `CS(=O)(=O)O.Cc1ccc(NC(=O)c2ccc(CN3CCN(C)CC3)cc2)cc1Nc1nccc(-c2cccnc2)n1` [imatinib mesylate], the hygroscopicity result in data set [2] was “non-hygroscopic”. Besides, the “HPLC single maximum impurity content” value is recorded as 0.23 wt % (Initial), 0.11 wt % (after 6 months) and 0.15 wt % (after 12 months). Further, the “HPLC total impurity content” value reads like this: (Initial) 0.50 wt %; (after 6 months) 0.33 wt %; (after 12 months) 0.41 wt %. The Water content (Initial) is 0.39 wt %, the Water content (after 6 months) is listed as 0.61 wt % and the Water content (after 12 months) turned out to be 0.58 wt %. In addition, the stability on storage entry (storage at ambient temperature) was “stable chemically and polymorphically”. Further, the DSC result in data set [3] (60° C. for 48 hours), in data set [3] (105° C. for 12 hours), in data set [3] (setting [8]) and in data set [3] (UV −45° C. 75 RH for 12 hours) was “Complies” each time. Further, the XRPD result in data set [3] (60° C. for 48 hours), in data set [3] (105° C. for 12 hours), in data set [3] (setting [8]) and in data set [3] (UV −45° C. 75 RH for 12 hours) was “Complies” throughout. Also, the DESCRIPTION entry was “Pale yellow” in data set [3] (setting [4]); “Cream coloured” in data set [3] (setting [5]); “Pale yellow” in data set [3] (setting [6]); “Cream coloured” in data set [3] (setting [7]); “Pale yellow” in data set [3] (setting [9]); “Cream coloured” in data set [3] (setting [10]). Besides, the DESCRIPTION result in data set [3] (setting [11]) is given as “Pale yellow”; in data set [3] (setting [12]), “Cream coloured”. Also, the Purity in data set [3] (setting [4]) is on record as 99.44%; in data set [3] (setting [5]), 99.17%; in data set [3] (setting [6]), 99.49%; in data set [3] (setting [7]), 99.18%; in data set [3] (setting [9]), 99.45%; in data set [3] (setting [10]) it was 99.26%. Besides, the Purity in data set [3] (setting [11]) stood at 99.38%; in data set [3] (setting [12]), 99.18%. The “Single Max. impurity” value in data set [3] (setting [4]) is listed as 0.20%; in data set [3] (setting [5]) it was 0.30%; in data set [3] (setting [6]), 0.17%; in data set [3] (setting [7]), 0.32%; in data set [3] (setting [9]) it was 0.18%; in data set [3] (setting [10]) it was 0.33%. For the same compound, the “Single Max. impurity” value amounted to 0.19% in data set [3] (setting [11]) and 0.34% in data set [3] (setting [12]). Also, in data set [3] (before and after stress study), the “polymorphic stability by DSC and XRPD evaluation” value is “polymorphically stable”. In addition, the “polymorphic identity under stress conditions” value in data set [3] (stress conditions such as milling or heating) is “retain the polymorphic identity”. In data set [3] (stress: 60° C. 48 hours, 105° C. 12 hours, UV 45° C. at 75% RH 12 hours), the “level of impurities before and after stability study” value is reported as “no increase in the level of impurities”.

Source of the values: patent US20070265288A1 (priority 2004, published 2007).
